{"source": "patent US20090318561A1", "about": "(MUTUAL PHARMACEUTICAL COMPANY, INC., priority 2008, published 2009)", "key": {"CYP1A2 mRNA [1]": {"test_system": "CYP1A2 mRNA", "experiment": "Quantitative RT-PCR analysis of CYP1A2 mRNA content in primary human hepatocytes", "conditions": "3-MC 2 μM; for Relative Fold mRNA Content: single sample", "protocol": "(§1) After isolation, hepatocytes were re-suspended in Dulbecco's modified Eagle medium (DMEM; Gibco BRL, Grand Island, N.Y.) containing 5% fetal bovine serum (FBS; Gibco BRL), insulin and dexamethasone (Gibco BRL) and added to plates coated with a collagen type I substratum (BD Biosciences, Bedford, Mass.). After attachment, serum-free William's E medium containing dexamethasone, insulin, transferrin, selenium (ITS^+, BD Biosciences) was added. Cultures of hepatocytes were maintained for 36 to 48 hours prior to initiating experiments.\n(§2) Dosing solutions were prepared fresh daily in cell culture medium such that the final dimethyl sulfoxide (DMSO) concentration was 0.1%. At the conclusion of the treatment period, cells were incubated with substrates and harvested for total RNA isolations.\n(§3) Cells in 24-well format were washed with one volume (0.5 mL) of Hank's Balanced Salt Solution and lysed by addition of 350 μL of ABI Nucleic Acid Lysis Solution (Applied Biosystems, Foster City, Calif.) and frozen at −70° C. Lysates were thawed and total RNA was isolated from each sample using an ABI 6100 Prepstation. Isolated RNA was analyzed using a Nanoprop® spectrophotometer (Wilmington, Del.) to estimate the total RNA concentrations, and RNA was stored at −70° C. For reverse transcription (RT), approximately 200 ng of pooled total RNA was converted to cDNA following the manufacturer's procedure for the High Capacity cDNA Archive Kit (Applied Biosystems, Foster City, Calif.).\n(§4) CYP1A2 cDNA from human hepatocyte cultures was analyzed from each RT reaction using gene-specific TAQMAN® primer/probe sets (Applied Biosystems). Reactions with the specific primer/probes for beta-actin were analyzed as an endogenous control for CYP450 expression. Amplifications were performed on an ABI 7500 Real-Time PCR System (Applied Biosystems) in relative quantification mode for 40 amplification cycles using standard conditions for TaqMan®-based assays. Threshold cycle (CT) determinations were performed by the ABI 7500 system software for both CYP450 and endogenous control gene □-actin. Relative-fold mRNA content was determined for each treatment group relative to the endogenous control gene expression and 0.1% DMSO vehicle control for each sample using the relationship:\n2^−ΔΔC^T=relative-fold mRNA content.\n(§5) Data (activities and mRNA) were analyzed for mean and standard error. […] Initially, data were examined for homoscedasticity and normality (of residuals from the ANOVA model fitting) using Levene's and Shapiro-Wilk tests, respectively.\n(§6) Negative control cultures were treated with media alone (in the presence or absence of 0.1% DMSO)."}, "CYP1A2 mRNA [2]": {"test_system": "CYP1A2 mRNA", "conditions": "human, 3 days", "protocol": "as §1, §2, §3, §4\n2^−ΔΔC^T=relative-fold mRNA content.\nas §5, §6"}}, "note": "“And” between values parts separate entries of the source, which are not always exact repeats. Identical values can stand only once. Like-named read-outs stand apart in the source and are kept apart here."}
{"compound": "Cc1ccc2cc3c(ccc4ccccc43)c3c2c1CC3", "note": "[3-MC, 3-methylcholanthrene]", "values": [{"measurement": "Mean Relative Fold mRNA Content", "setting": "CYP1A2 mRNA [1]; lot Hu485", "result": 396}, {"measurement": "Percent of Adjusted Positive Control", "setting": "CYP1A2 mRNA [1]; lot Hu485", "result": 100.00, "unit": "%"}, {"measurement": "Relative Fold mRNA Content", "setting": "CYP1A2 mRNA [1]; lot Hu485", "result": "361 and 445 and 380"}, {"measurement": "Mean Relative Fold mRNA Content", "setting": "CYP1A2 mRNA [1]; lot Hu503", "result": 161}, {"measurement": "Percent of Positive Control", "setting": "CYP1A2 mRNA [1]; lot Hu503", "result": 100.00, "unit": "%"}, {"measurement": "Relative Fold mRNA Content", "setting": "CYP1A2 mRNA [1]; lot Hu503", "result": "167 and 137 and 180"}, {"measurement": "Mean Relative Fold mRNA Content", "setting": "CYP1A2 mRNA [1]; lot Hu4021", "result": 71.9}, {"measurement": "Percent of Positive Control", "setting": "CYP1A2 mRNA [1]; lot Hu4021", "result": 100.00, "unit": "%"}, {"measurement": "Relative Fold mRNA Content", "setting": "CYP1A2 mRNA [1]; lot Hu4021", "result": "68.7 and 69.1 and 77.8"}]}
{"compound": "CC[C@]1(O)C[C@@H]2CN(CCc3c([nH]c4ccccc34)[C@@](C(=O)OC)(c3cc4c(cc3OC)N(C)[C@H]3[C@@](O)(C(=O)OC)[C@H](OC(C)=O)[C@]5(CC)C=CCN6CC[C@]43[C@@H]65)C2)C1", "note": "[vinblastine]", "values": [{"measurement": "Percent of Adjusted Positive Control", "setting": "CYP1A2 mRNA [2]; 1 nM", "result": 1.23, "unit": "%"}, {"measurement": "Percent of Adjusted Positive Control", "setting": "CYP1A2 mRNA [2]; 10 nM", "result": 1.18, "unit": "%"}, {"measurement": "Percent of Adjusted Positive Control", "setting": "CYP1A2 mRNA [2]; 100 nM", "result": 0.70, "unit": "%"}]}
